Source: US10034886B2, “GLP-1 receptor modulators” (Celgene International II SÀRL, priority 2014, dated 2018)
Where two headings read alike, the source gives them in different places.

Target: T1, GLP-1R (Homo sapiens, UniProt P43220)
T1 construct: host or cells: GLP-1R CRE-bla CHO-K1 cells
Test: EC20 GLP-1(9-36) PAM cAMP assay: dose response of compound in the presence of fixed concentration of GLP-1(9-36)
Type: cell-based
Conditions: GLP-1R CRE-bla CHO-K1 cells, read-out: EC20 GLP-1(9-36) PAM EC50
In short: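 GLP-1R CRE-bla CHO-K1 cells treated 30 min at 37 °C with 12-point compound dose response plus fixed EC20 GLP-1(9-36), with IBMX, in HBSS/HEPES/0.1% BSA pH 7.4. Total cAMP measured by luminescent detection against standard curve; EC50 and Emax from non-linear regression.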

[1] = dose response of compound in presence of fixed concentration of GLP-1(9-36)
[2] = compound dose response with fixed concentration of GLP-1(9-36)

T1 sequence (P43220 24-463): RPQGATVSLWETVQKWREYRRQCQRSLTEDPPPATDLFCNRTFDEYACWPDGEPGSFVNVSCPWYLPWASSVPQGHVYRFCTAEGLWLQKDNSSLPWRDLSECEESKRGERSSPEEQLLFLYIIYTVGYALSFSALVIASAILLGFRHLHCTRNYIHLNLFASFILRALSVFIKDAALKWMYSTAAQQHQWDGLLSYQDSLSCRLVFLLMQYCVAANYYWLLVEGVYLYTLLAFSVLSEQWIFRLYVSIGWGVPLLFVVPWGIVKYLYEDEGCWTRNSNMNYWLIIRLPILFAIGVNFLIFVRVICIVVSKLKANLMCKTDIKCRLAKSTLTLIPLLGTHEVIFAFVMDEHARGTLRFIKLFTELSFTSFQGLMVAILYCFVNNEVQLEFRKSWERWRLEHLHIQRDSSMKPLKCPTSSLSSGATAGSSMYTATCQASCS
T1 sequence (P01275 100-127 partner limits assumed): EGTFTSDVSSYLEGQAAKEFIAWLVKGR

Structure (SMILES) | EC50 [1] [nM] | EC50 [2] [nM]
CCCCCCCOc1ccc(-c2cnc(-c3ccc(C[C@H](NC(=O)c4ccc(C(C)(C)C)s4)C(=O)N4CCCC45CNC5)cc3)nc2)cc1 [Compound 1048] | 2500 to 5000 | –
CCCCCCCc1ccc(-c2cnc(-c3ccc(C[C@H](NC(=O)c4ccc(C(C)(C)C)s4)C(=O)N[C@H](C)C(=O)O)cc3)nc2)cc1 [Compound 737] | < 800 | –
CC(C)(C)c1ccc(C(=O)N[C@@H](Cc2ccc(-c3ncc(-c4nc(CCc5ccccc5)no4)cn3)cc2)C(=O)NCCC(=O)O)cc1 [Compound 746] | 2500 to 5000 | –
CCCCCCCOc1ccc(-c2cnc(-c3ccc(CC(NC(=O)c4ccc(C(C)(C)C)s4)C(=O)NCC4CCN(C)CC4)cc3)nc2)cc1 (centres unmarked) [Compound 430] | 5000 to 10000 | –
CCC[C@H]1CC[C@H](C2CCN(c3cnc(-c4ccc(C[C@H](NC(=O)c5ccc(C(C)(C)C)s5)C(=O)N[C@H](CC(N)=O)C(=O)O)cc4)nc3)CC2)CC1 [Compound 1460] | – | < 800
CC(C)(C)c1ccc(C(=O)N[C@@H](Cc2ccc(-c3ncc(N4CCC(c5ccccc5)CC4)cn3)cc2)C(=O)N2CC(C(=O)O)C2)s1 [Compound 1426] | – | 800 to 2500
CCCCCCCOc1ccc(-c2cnc(-c3ccc(C[C@H](NC(=O)c4ccc(C(C)(C)C)s4)C(=O)N[C@@H](CC(=O)O)C(=O)NCCOC)cc3)nc2)cc1 [Compound 532] | < 800 | –
CCCCCCCOc1ccc(-c2cnc(-c3ccc(C[C@H](NC(=O)c4ccc(C(C)(C)C)cc4)C(=O)N[C@@H](CC(=O)Nc4nnn[nH]4)C(=O)O)cc3)nc2)cc1 [Compound 510] | 2500 to 5000 | –
CCCCCCCOc1ccc(-c2cnc(-c3ccc(C[C@H](NC(=O)c4ccc(CCC)cc4)C(=O)N4CC(C(=O)O)C4)cc3)nc2)cc1 [Compound 1112] | 800 to 2500 | –
C[C@@H](NC(=O)[C@H](Cc1ccc(-c2ncc(-c3ccc4c(ccn4S(=O)(=O)c4ccccc4)c3)cn2)cc1)NC(=O)c1ccc(C(C)(C)C)s1)C(=O)O [Compound 1010] | 2500 to 5000 | –
CC(C)(C)c1ccc(C(=O)N[C@@H](Cc2ccc(-c3ncc(-c4ccc(-c5ccc(OC(F)(F)F)cc5)cc4F)cn3)cc2)C(=O)O)s1 [Compound 1365] | – | < 800
CCC[C@H]1CC[C@H](N2CCN(c3cnc(-c4ccc(CC(NC(=O)c5ccc(C(C)(C)C)s5)C(=O)N5CC(C(=O)O)C5)cc4)nc3)C(=O)C2)CC1 (some centres unmarked) [Compound 1420] | – | 2500 to 5000
CC(C)(C)c1ccc(C(=O)N[C@@H](Cc2ccc(-c3ncc(N4CCC(c5cccc(Cl)c5)CC4)cn3)cc2)C(=O)N2CC(C(=O)O)C2)s1 [Compound 1479] | – | 800 to 2500
CC(C)(C)c1ccc(-c2ccc(-c3cnc(-c4ccc(C[C@H](NC(=O)c5ccc(C(C)(C)C)s5)C(=O)O)cc4)nc3)cc2)cc1 [Compound 1348] | – | 2500 to 5000
CCCCCCCOc1ccc(-c2cnc(-c3ccc(C[C@H](NC(=O)c4ccc(C(C)(C)C)s4)C(=O)N4CC(C(=O)O)C4)cc3)nc2)cc1C [Compound 776] | < 800 | –
CCCCCCCOc1ccc(-c2cnc(-c3ccc(C[C@H](NC(=O)c4ccc(C(C)(C)C)cc4)C(=O)N[C@@H](CC(=O)OCc4ccccc4)C(=O)O)cc3)nc2)cc1 [Compound 502, (S)-4-(benzyloxy)-2-((S)-2-(4-(tert-butyl)benzamido)-3-(4-(5-(4-(heptyloxy)phenyl)pyrimidin-2-yl)phenyl)propanamido)-4-oxobutanoic acid] | < 800 | –
CC[C@H]1CC[C@H](c2ccc(-c3cnc(-c4ccc(C[C@H](NC(=O)c5ccc(C(C)(C)C)s5)C(=O)N[C@H](C)C(=O)O)cc4)nc3)cc2)CC1 [Compound 1056, ((S)-2-(5-(tert-butyl)thiophene-2-carboxamido)-3-(4-(5-(4-((1r,4r)-4-ethylcyclohexyl)phenyl)pyrimidin-2-yl)phenyl)propanoyl)-D-alanine] | < 800 | –
CCC[C@H]1CC[C@H](C2CCN(c3cnc(-c4ccc(C[C@H](NC(=O)c5ccc(C(C)(C)C)s5)C(=O)NC(CN(C)C)C(=O)O)cc4)nc3)CC2)CC1 (some centres unmarked) [Compound 1459] | – | < 800

Structure (SMILES) | EC50 [1] [nM] | EC50 [2] [nM]
CC(C)(C)c1ccc(C(=O)N[C@@H](Cc2ccc(-c3ncc(-c4ccc(OCC5CCCC5)cc4)cn3)cc2)C(=O)N2CC(C(=O)O)C2)s1 [Compound 922] | 5000 to 10000 | –
Cc1ccc(S(=O)(=O)N2CC=C(c3cnc(-c4ccc(C[C@H](NC(=O)c5ccc(C(C)(C)C)s5)C(=O)N[C@H](C)C(=O)O)cc4)nc3)CC2)cc1 [Compound 1338] | – | 2500 to 5000
CCCCCCCOc1ccc(-c2cnc(-c3ccc(C[C@H](NC(=O)c4ccc(C(C)(C)C)s4)C(=O)N4CCC(C)(C(=O)O)C4)cc3)nc2)cc1 (some centres unmarked) [Compound 637] | 800 to 2500 | –
CCC[C@H]1CC[C@H](C2CCN(c3cnc(-c4ccc(CC(NC(=O)c5ccc(C(C)(C)C)s5)C(=O)NS(=O)(=O)CCN(C)C)cc4)nc3)CC2)CC1 (some centres unmarked) [Compound 1547] | – | < 800
CC[C@H]1CC[C@@H](c2ccc(-c3cnc(-c4ccc(C[C@H](NC(=O)c5ccc(C(C)(C)C)s5)C(=O)O)cc4)nc3)c(F)c2)CC1 [Compound 1362] | – | < 800
CC(C)c1ccc(-c2cnc(-c3ccc(C[C@H](NC(=O)c4ccc(C(C)(C)C)s4)C(=O)N[C@H](C)C(=O)O)cc3)nc2)cc1 [Compound 1034] | 2500 to 5000 | –
CCCCCCCOc1ccc(-c2cnc(-c3ccc(C[C@H](NC(=O)c4ccc(C(C)(C)C)cc4)C(=O)NCCC(=O)O)cc3)nc2)cc1C [Compound 698] | < 800 | –
CCC[C@H]1CC[C@H](C2CCN(c3cnc(-c4ccc(C[C@H](NC(=O)c5ccc(C(C)(C)C)s5)C(=O)N[C@@H](C(=O)O)C5CC5)cc4)nc3)CC2)CC1 [Compound 1444] | – | < 800
CCC[C@H]1CC[C@H](c2ccc(-c3cnc(-c4ccc(C[C@H](NC(=O)c5ccc(C(C)(C)C)s5)C(=O)O)cc4)nc3)cc2)CC1 [Compound 1346] | – | < 800
CCCCCCCOc1ccc(-c2cnc(-c3ccc(C[C@H](NC(=O)c4ccc(C(C)(C)C)s4)C(=O)NCCN(C)C)cc3)nc2)cc1 [Compound 385] | 5000 to 10000 | –
CC[C@H]1CC[C@H](c2ccc(-c3cnc(-c4ccc(C[C@H](NC(=O)c5ccc(C(C)(C)C)s5)C(=O)N5CC(C(=O)O)C5)cc4)nc3)cc2)CC1 [Compound 1057, 1-((S)-2-(5-(tert-butyl)thiophene-2-carboxamido)-3-(4-(5-(4-((1r,4r)-4-ethylcyclohexyl)phenyl)pyrimidin-2-yl)phenyl)propanoyl)azetidine-3-carboxylic acid] | < 800 | –
COc1ccc(-c2cnc(-c3ccc(C[C@H](NC(=O)c4ccc(C(C)(C)C)s4)C(=O)N[C@H](C)C(=O)O)cc3)nc2)cc1C12CC3CC(CC(C3)C1)C2 [Compound 1054] | 2500 to 5000 | –
CC(C)(C)c1ccc(C(=O)N[C@@H](Cc2ccc(-c3ncc(-c4ccc(-c5ccc(Cl)c(Cl)c5)cc4F)cn3)cc2)C(=O)N2CC(C(=O)O)C2)s1 [Compound 1200] | < 800 | –
CCCCCCCOc1ccc(-c2nnc(-c3ccc(C[C@H](NC(=O)c4ccc(C(C)(C)C)cc4)C(=O)N[C@H](C)C(=O)O)cc3)s2)cc1 [Compound 802] | 2500 to 5000 | –
CCC[C@H]1CC[C@H](C2CCN(c3cnc(-c4ccc(CC(NC(=O)c5ccc(C(C)(C)C)s5)C(=O)NS(=O)(=O)CCC5CCC5)cc4)nc3)CC2)CC1 (some centres unmarked) [Compound 1541] | – | 800 to 2500
CCCCCCCOc1ccc(-c2cnc(-c3ccc(C[C@@H](NC(=O)c4ccc(C(C)(C)C)cc4)C(=O)N[C@@H](C)C(=O)O)cc3)nc2)cc1 [Compound 436] | < 800 | –
CCCc1ccc(CC2CN(c3cnc(-c4ccc(CC(NC(=O)c5ccc(C(C)(C)C)s5)C(=O)N5CC(C(=O)O)C5)cc4)nc3)C2)cc1 (centres unmarked) [Compound 1509] | – | 5000 to 10000
